In BindingDB's records for doi:10.1021/bi1005283 (Merck Research Laboratories, 2010):

target: T1, Kinesin-like protein KIF11 (Homo sapiens, UniProt P52732); test: Binding Assay
T1 sequence (P52732 whole entry): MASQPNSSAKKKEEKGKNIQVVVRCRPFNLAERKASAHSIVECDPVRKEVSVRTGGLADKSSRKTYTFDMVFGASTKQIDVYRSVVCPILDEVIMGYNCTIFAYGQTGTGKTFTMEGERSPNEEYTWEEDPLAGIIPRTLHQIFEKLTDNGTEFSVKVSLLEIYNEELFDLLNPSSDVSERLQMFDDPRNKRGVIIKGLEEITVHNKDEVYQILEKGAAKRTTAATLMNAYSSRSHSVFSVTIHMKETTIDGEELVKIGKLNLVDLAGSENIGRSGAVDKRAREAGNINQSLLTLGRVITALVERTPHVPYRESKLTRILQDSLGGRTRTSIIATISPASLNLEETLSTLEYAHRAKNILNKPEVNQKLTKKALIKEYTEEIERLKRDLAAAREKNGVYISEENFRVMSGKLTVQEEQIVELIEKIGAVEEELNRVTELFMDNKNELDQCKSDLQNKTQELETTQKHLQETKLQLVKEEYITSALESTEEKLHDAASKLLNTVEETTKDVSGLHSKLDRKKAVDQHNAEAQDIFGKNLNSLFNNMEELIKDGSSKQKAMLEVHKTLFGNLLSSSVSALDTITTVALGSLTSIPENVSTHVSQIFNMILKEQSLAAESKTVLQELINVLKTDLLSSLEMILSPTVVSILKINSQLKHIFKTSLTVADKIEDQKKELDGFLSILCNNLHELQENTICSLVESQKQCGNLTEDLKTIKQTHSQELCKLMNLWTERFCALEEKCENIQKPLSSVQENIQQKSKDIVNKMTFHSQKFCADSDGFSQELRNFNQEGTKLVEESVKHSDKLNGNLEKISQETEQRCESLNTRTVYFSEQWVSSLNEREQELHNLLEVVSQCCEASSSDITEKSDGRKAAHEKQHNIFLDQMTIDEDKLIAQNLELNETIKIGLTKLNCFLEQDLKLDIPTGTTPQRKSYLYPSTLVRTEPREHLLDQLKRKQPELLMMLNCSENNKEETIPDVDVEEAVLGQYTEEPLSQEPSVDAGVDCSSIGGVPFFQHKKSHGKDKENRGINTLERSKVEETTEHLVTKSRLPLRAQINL
From the text: Binding assay using temperature-dependent circular dichroism (TdCD). In TdCD, the loss of protein secondary structure was monitored as a function of temperature. Proteins bound with ligand become more resistant to thermal unfolding compared to the unliganded protein because of the additional stabilization interactions created between the ligand and protein.

| Kd [nM] | Structure (SMILES) |
| --- | --- |
| 2500 | CS(=O)(=O)c1ccc(Nc2nc3cc(C(N)=O)ccc3n2Cc2ccccc2C(F)(F)F)cc1 [KSP Inhibitor, 4b] |
| 14000 | O=C(O)c1ccc2c(c1)nc(Nc1ccc(OCc3ccccc3)cc1)n2Cc1ccccc1C(F)(F)F [KSP Inhibitor, 4c] |
| 2000 | CSc1ccc(Nc2nc3cc(C(N)=O)ccc3n2Cc2ccccc2C(F)(F)F)cc1 [KSP Inhibitor, 4a] |
| 3400 | COc1ccc(Nc2nc3cc(C(=O)O)ccc3n2Cc2ccccc2OC(F)(F)F)cc1 [KSP Inhibitor, 4g] |
| 5000 | COc1ccc(Nc2nc3cc(C(=O)O)ccc3n2Cc2ccccc2OC)cc1 [KSP Inhibitor, 4d] |
| 1200 | COc1ccc(Nc2nc3cc(C(=O)O)ccc3n2Cc2ccccc2C(F)(F)F)cc1 |
| 600 | NC(=O)c1ccc2c(c1)nc(Nc1ccc(S(N)(=O)=O)cc1)n2Cc1ccccc1C(F)(F)F [KSP Inhibitor, 4e] |
